Here are results for two compounds from PMC3456924, “Single-dose pharmacokinetic and toxicity analysis of pyrrole–imidazole polyamides in mice” (Cancer Chemotherapy and Pharmacology, 2012).

Each structure is given as a SMILES string. Values joined by “and” are separate entries in the source; they are usually repeats but may differ in a detail not shown here. Equal entries are not always repeated. “Also recorded” adds a separate entry of the source. Where two headings read alike, the source gives them in different places.

Data set [1] in a line: Plasma pharmacokinetics after a single IV tail vein injection. It counts as in vivo, BALB/C mice. The settings on record: for half-life / Cmax / AUC(0-inf) / clearance: iv; for concentration at 24 h: 24 h after single IV, read-out: average plasma concentration 24 h postinjection. How it is done:
Pyrrole–imidazole polyamide pharmacokinetic studies were performed in 10- to 12-week-old female BALB/C mice (Charles River). Polyamides were solubilized in PBS (1) or PBS/DMSO (2) and administered via intravenous (IV) tail vein injection at concentrations of 7.5 and 5 mg/kg, respectively. For each experiment, groups of 3 animals were euthanized at 0.083, 0.25, 0.5, 1, 2, 4, 8, and 24 h after injection. Animals designated for the 4, 8, and 24 h time points were housed in metabolic cages for collection of urine and feces as described below. All animals used in the pharmacokinetic experiments were performed under an approved protocol at the City of Hope.
Concentrations of polyamides 1 and 2 were analyzed by LC/MS/MS using a Waters Acquity UPLC system (Milford, MA, USA) interfaced with a Waters Quattro Premier XE Mass Spectrometer. HPLC separation was achieved using a Jupiter 4u Proteo 90A 150 × 2.0 mm column (Phenomenex, Torrance, CA, USA) proceeded by a Phenomenex C8 guard column (Torrance, CA, USA). The column temperature was maintained at 30 °C. The mobile phase consisted of A (0.05 % acetic acid in water) and B (0.05 % acetic acid in acetonitrile). The following gradient program was used: 8 % B (0–1 min, 0.3 ml/min), 16 % B (3 min, 0.3 ml/min), 58 % B (6 min, 0.3 ml/min), 90 % B (7 min, 0.3 ml/min), and 8 % B (7.3 min, 0.3 ml/min). The total run time was 11.5 min. The auto-injector temperature was maintained at 5 °C. The strong needle wash solution was 5 % formic acid in MeOH/ACN (2:8) for both compounds, and the weak needle wash solution was 30 % MeOH in water for compound 1 and 50 % ACN in water for compound 2. The electrospray ionization source of the mass spectrometer was operated in positive ion mode with a cone gas flow of 50 L/hr and a desolvation gas flow of 700 L/hr. The capillary voltage was set to 3.2 kV, and the cone and collision cell voltages were optimized to 32 and 27 V for 1 and the INS 3. Voltages were optimized to 31 and 20 V for 2 and the INS 4. The source temperature was 125 °C, and the desolvation temperature was 470 °C. A solvent delay program was used from 0 to 4.0 min and from 6.1 to 11.5 min to minimize the mobile phase to flow to the source. MassLynx version 4.1 software was used for data acquisition and processing.
Plasma and urine samples were prepared for LC/MS/MS analysis by mixing 30 μL of plasma with 20 μL of 50 % MeOH and 50 % aqueous 1 % HOAc. The mixture was vortexed and mixed with an additional 120 μL of 0.5 % HOAc in MeOH/ACN (4:6) and 20 μL of 6.0 μg/mL INS in MeOH/1 % aqueous HOAc (1:1). The mixture was vortexed again for 2 min and centrifuged at the highest setting for 4 min. Next, 20 μL of the supernatant was transferred to a new tube and mixed with 180 μL of 50 % MeOH/ACN (4:6) and 50 % aqueous 1 % HOAc.
Standard curves were prepared mixing untreated plasma with 20 μL of 50 % MeOH and 50 % aqueous 1 % HOAc prepared with various concentrations of 1 and 2. Internal standards were added as described above.
Plasma pharmacokinetic parameters were derived from polyamide concentration profiles using both non-compartmental and compartmental methods. Non-compartmental analysis was performed according to statistical moment theory and the rule of linear trapezoids, while compartmental analysis was performed in ADAPT II [24]. Pharmacokinetic parameters estimated from the non-compartmental analysis include the maximum concentration (C max), the terminal elimination half-life (t 1/2), the mean residence time (MRT), the area under the concentration curve (AUC0–24h), the AUC extrapolated to infinity (AUC0–∞), and the clearance (CL). Additional plasma pharmacokinetic parameters determined from the compartmental analysis include the alpha and beta half-lives (t 1/2) and the apparent volume of distribution (V d). Tissue pharmacokinetic parameters were determined non-compartmentally and included the C max and AUC0–24h. […]

A further data set is described as follows: pH stability analysis. To be noted: buffers at 37 °C for 24 h; analytical HPLC. It counts as physicochemical. How it is done: The pH stability of Py-Im polyamides was analyzed as previously described. In summary, 15 μL of a 10 μM solution of polyamide 1 or 2 in DMSO was incubated with 85 μL of buffer with pH of 2.5, 4, 7, or 10 (Fluka) at 37 °C for 24 h. After incubation, the sample was mixed with an equal volume of N,N-dimethylformamide and sonicated briefly. Next, 20 μL of the sample solution was mixed with 180 μL of aqueous buffer containing 100 mM NH4OAc and 25 μM methyl 4-nitro-1H-pyrrole-2-carboxylate as an internal standard. Analytical HPLC analysis was performed on a Beckman analytical HPLC.

Another data set has as its system C57BL/6 mice. As to the kind of experiment: Toxicity (weight loss, signs of duress) after a single SC injection. To be noted: for additional signs of duress / dose level with critical (>15 %) / dose-limiting weight loss: single SC injection, 7-day observation.
[2] abbreviates: female, BALB/C, mouse, plasma, compartmental analysis, single IV, 7.5 mg/kg (1), 5 mg/kg (2).
The mark [3] stands for this setting: female, BALB/C, mouse, plasma, non-compartmental analysis, single IV, 7.5 mg/kg (1), 5 mg/kg (2).
Setting [4] is: female, BALB/C, mouse, plasma, 7.5 mg/kg (1), 5 mg/kg (2).
Where [5] appears, read: plasma, compartmental analysis, single IV, 7.5 mg/kg (1), 5 mg/kg (2).
[6] abbreviates: plasma, non-compartmental analysis, single IV, 7.5 mg/kg (1), 5 mg/kg (2).

Description for C57BL/6 mice: Four animals were used in each group unless otherwise noted.

On to `CN(CCCNC(=O)c1cccc(C(=O)O)c1)CCCNC(=O)c1cc(NC(=O)c2cc(NC(=O)c3cc(NC(=O)c4nc(NC(=O)[C@H](N)CCNC(=O)c5cc(NC(=O)c6cc(NC(=O)c7cc(NC(=O)c8nccn8C)cn7C)cn6C)cn5C)cn4C)cn3C)cn2C)cn1C` [Polyamide 1], for which the half-life in data set [1] (female, BALB/C, mouse, plasma, plasma, compartmental analysis, single IV, 7.5 mg/kg (1), 5 mg/kg (2), read-out: t 1/2 α (initial) (converted)) is 0.5 h; in data set [1] (female, BALB/C, mouse, plasma, plasma, compartmental analysis, single IV, 7.5 mg/kg (1), 5 mg/kg (2), read-out: t 1/2 β (terminal) (converted)) it was 4.6 h; in data set [1] (female, BALB/C, mouse, plasma, plasma, non-compartmental analysis, single IV, 7.5 mg/kg (1), 5 mg/kg (2), read-out: Elimination t 1/2 (converted)), 5.2 h. Further, the Cmax stood at 43600 ng/mL in data set [1] (female, BALB/C, mouse, plasma, compartmental analysis (2-compartment model), single IV, 7.5 mg/kg (1), 5 mg/kg (2)) and 49400 ± 11200 ng/mL in data set [1] (female, BALB/C, mouse, plasma, non-compartmental analysis, single IV, 7.5 mg/kg (1), 5 mg/kg (2), mean ± S.D., n = 3). Further, the AUC(0-inf) in data set [1] (setting [2]) turned out to be 67500 ng·h/mL; in data set [1] (setting [3]), 77400 ng·h/mL. For the same compound, the clearance in data set [1] (setting [2]) was 0.035 mL/min; in data set [1] (setting [3]), 0.03 mL/min. The concentration at 24 h in data set [1] (setting [4]) came to 210 ± 100 ng/mL. Moreover, the Vd in data set [1] (female, BALB/C, mouse, plasma, compartmental analysis, single IV, 7.5 mg/kg (1), 5 mg/kg (2), read-out: V d) was 0.0081 L. Further, the AUC(0-t) in data set [1] (setting [3]) is 75800 ng·h/mL. The MRT in data set [1] (female, BALB/C, mouse, plasma, non-compartmental analysis, single IV, 7.5 mg/kg (1), 5 mg/kg (2), read-out: MRT) was found to be 3.3 h. Moreover, the “maximum plasma concentration relative to effective concentration for PSA mRNA downregulation in cell culture” value in data set [1] (plasma C max vs cell culture effective concentration) is “over 3 times”. Moreover, the “stability at pH 2.5, 4, 7, and 10” value in the data set “pH stability analysis” is on record as “did not display significant signs of degradation at any pH”. Besides, the “additional signs of duress” value in the data set on C57BL/6 mice is reported as “no additional sign of duress was observed”. The “dose level with critical (>15 %) / dose-limiting weight loss” value in the data set on C57BL/6 mice amounted to 10 mg/kg.

Turning to `CC(=O)N[C@@H](CNC(=O)c1cc(NC(=O)c2cc(NC(=O)c3cc(NC(=O)c4nccn4C)cn3C)cn2C)cn1C)CC(=O)Nc1cn(C)c(C(=O)Nc2cc(C(=O)Nc3cc(C(=O)Nc4cc(C(=O)NCCCN(C)CCCNC(=O)c5cccc(C(=O)O)c5)n(C)c4)n(C)c3)n(C)c2)n1` [Polyamide 2], in data set [1] (setting [4]), the concentration at 24 h amounted to 490 ± 200 ng/mL. Also, the C max in data set [1] (plasma, compartmental analysis (2-compartment model), single IV, 7.5 mg/kg (1), 5 mg/kg (2)) was determined as 40200 ng/mL. Further, in data set [1] (setting [5]), the “AUC0–∞” value was found to be 144800 ng·h/mL, the CL amounted to 0.7 mL/h, the Vd was found to be 0.004 L and the “t 1/2 α (initial)” value was found to be 6 min. Also, in data set [1] (setting [5]), the “t 1/2 β (terminal)” value was 4.2 h. For the same compound, in data set [1] (setting [6]), the “AUC0–t” value was 173500 ng·h/mL, the “AUC0–∞” value was determined as 176500 ng·h/mL, the CL is 0.6 mL/h and the “Elimination t 1/2” value was 4.3 h. Moreover, the MRT in data set [1] (setting [6]) is 4.9 h. In data set [1] (plasma, non-compartmental analysis, single IV, 7.5 mg/kg (1), 5 mg/kg (2), mean ± S.D., n = 3), this compound came in with a C max of 41300 ± 5900 ng/mL. The “stability at pH 2.5, 4, 7, and 10” value in “pH stability analysis” is “did not display significant signs of degradation at any pH”. Further, in the data set with C57BL/6 mice (single SC injection of 1 and 2), the “relative toxicity in weight curve experiments” value is on record as “more toxic”. For the same compound, in the data set on C57BL/6 mice, the “additional signs of duress” value is “multiple signs of duress such as loss of ambulation and hunched posture in addition to weight loss; also recorded: additional signs of physical duress in addition to weight loss at all concentrations except 1.1 mg/kg”; the “dose level with critical (>15 %) / dose-limiting weight loss” value was 4.5 mg/kg and 2.3 mg/kg.

The Cmax is the peak of the concentration-time curve. For orientation: AUC(0-inf) means total exposure, with the tail of the curve extrapolated. Broadly, the clearance is the rate of elimination divided by the concentration. A low value points to a low capacity for elimination. What is called AUC(0-t) is the area under the concentration-time curve up to a stated or last time point. Read a high AUC(0-t) as high exposure. By MRT is commonly meant a mean duration of stay, worked out from the concentration-time curve.
